ChEMBL document CHEMBL1129533, “Thrombus imaging using technetium-99m-labeled high-potency GPIIb/IIIa receptor antagonists. Chemistry and initial biological studies” (J Med Chem, 1996)
Where a SMILES comes first, the peptide text is derived from it. Bridges are numbered along the chain shown (N, C = ends). [ ]: non-standard residue; d: D form. The star is where a group is joined. Propyl(3-NH2) = NCCC*; Acm = CC(=O)NC*

tested on: not listed separately; test: Thrombus to blood ratio was determined by canine thrombosis model; type: functional; conditions: not given

| Compound | Ratio |
| --- | --- |
| N=C(N)c1ccc(C[C@H]2NC(=O)[C@H](Cc3ccc(O)cc3)NC(=O)CSC[C@H](C(=O)N[C@@H](CCCCN)C(=O)NCC(=O)N[C@@H](CSCC(=O)CC(=O)N[C@@H](CCCCN)C(=O)N[C@@H](CCCCN)C(=O)NCC(=O)N[C@@H](CS)C(=O)O)C(=O)NCC(N)=O)NC(=O)[C@@H](CC(=O)O)NC(=O)CNC2=O)cc1 | 7.2 |

organism: Canis familiaris; test: Percent injected dose in the thrombus was determined by canine thrombosis model; type: functional, organism-based; conditions: Canis lupus familiaris

| Compound | ID/g [%] |
| --- | --- |
| N=C(N)c1ccc(C[C@H]2NC(=O)[C@H](Cc3ccc(O)cc3)NC(=O)CSC[C@H](C(=O)N[C@@H](CCCCN)C(=O)NCC(=O)N[C@@H](CSCC(=O)CC(=O)N[C@@H](CCCCN)C(=O)N[C@@H](CCCCN)C(=O)NCC(=O)N[C@@H](CS)C(=O)O)C(=O)NCC(N)=O)NC(=O)[C@@H](CC(=O)O)NC(=O)CNC2=O)cc1 | 0.017 |

tested on: not listed separately; test: Thrombus to muscle ratio was determined by canine thrombosis model; type: functional, Muscle tissue; conditions: not given

| Compound | Ratio |
| --- | --- |
| N=C(N)c1ccc(C[C@@H]2NC(=O)[C@@H](Cc3ccc(O)cc3)NC(=O)CSC[C@@H](C(=O)N[C@@H](CCCCN)C(=O)NCC(=O)N[C@@H](CSCC(=O)CC(=O)N[C@@H](CCCCN)C(=O)N[C@@H](CCCCN)C(=O)NCC(=O)N[C@@H](CS)C(=O)O)C(=O)NCC(N)=O)NC(=O)[C@H](CC(=O)O)NC(=O)CNC2=O)cc1 [listing 1 of 2 here] | 41 |

organism: Canis familiaris; test: Percent injected dose in the blood was determined by canine thrombosis model; type: functional, organism-based; conditions: Canis lupus familiaris

| Compound | ID/g [%] |
| --- | --- |
| N=C(N)c1ccc(C[C@H]2NC(=O)[C@H](Cc3ccc(O)cc3)NC(=O)CSC[C@H](C(=O)N[C@@H](CCCCN)C(=O)NCC(=O)N[C@@H](CSCC(=O)CC(=O)N[C@@H](CCCCN)C(=O)N[C@@H](CCCCN)C(=O)NCC(=O)N[C@@H](CS)C(=O)O)C(=O)NCC(N)=O)NC(=O)[C@@H](CC(=O)O)NC(=O)CNC2=O)cc1 | 0.0025 |

organism: Homo sapiens; test: Inhibition of ADP-induced platelet aggregation in human platelet rich citreated plasma in presence of 10-20 uM ADP.; type: functional; conditions: not given

| Compound | IC50 [nM] |
| --- | --- |
| CC(=O)NCSC[C@H](NC(=O)CNC(=O)CNC(=O)[C@@H]1CSCC(=O)N[C@H](Cc2ccc(O)cc2)C(=O)N[C@@H](CSCCCN)C(=O)NCC(=O)N[C@@H](CC(=O)O)C(=O)N1)C(=O)NCC(=O)N[C@@H](CSCNC(C)=O)C(=O)NCC(=O)NCC(=O)N[C@@H](CSCC(=O)CC(=O)N[C@@H](CCCCN)C(=O)N[C@@H](CCCCN)C(=O)NCC(=O)N[C@@H](CS)C(=O)O)C(N)=O | 110 |
| C[C@H](NC(=O)[C@H](CS)NC(=O)CNC(=O)[C@H](CCCCN)NC(=O)[C@H](CCCCN)NC(=O)CNC(=O)CNC(=O)[C@H](CCCCN)NC(=O)CNC(=O)CNC(=O)[C@H](CCCCN)NC(=O)[C@@H]1CSCC(=O)N[C@H](Cc2ccc(O)cc2)C(=O)N[C@@H](CSCCCN)C(=O)NCC(=O)N[C@@H](CC(=O)O)C(=O)N1)C(N)=O | 80 |
| CC(=O)NCSC[C@H](NC(=O)CNC(=O)CNC(=O)[C@@H]1CSCC(=O)N[C@H](Cc2ccc(O)cc2)C(=O)N[C@@H](CSCCCN)C(=O)NCC(=O)N[C@@H](CC(=O)O)C(=O)N1)C(=O)NCC(=O)N[C@@H](CSCNC(C)=O)C(=O)NCC(=O)NCC(=O)N[C@@H](CSC1CC(=O)[N+]2(CCCNCCC2)C1=O)C(N)=O (some centres not stated) | 40 |
| CC(=O)NCSC[C@H](NC(=O)CNC(=O)CNC(=O)[C@@H]1CSCC(=O)N[C@H](Cc2ccc(O)cc2)C(=O)N[C@@H](CSCCCN)C(=O)NCC(=O)N[C@@H](CC(=O)O)C(=O)N1)C(=O)NCC(=O)N[C@@H](CSCNC(C)=O)C(=O)NCC(=O)NCC(=O)N[C@@H](CSC1CCNC(=O)CNCCNC(=O)CNCCNC(=O)C1)C(N)=O (some centres not stated) | 30 |
| NCCCC[C@H](NC(=O)[C@@H]1CSCC(=O)N[C@H](Cc2ccc(O)cc2)C(=O)N[C@@H](CSCCCN)C(=O)NCC(=O)N[C@@H](CC(=O)O)C(=O)N1)C(=O)NCC(=O)N[C@@H](CS)C(=O)NCC(=O)N[C@@H](CS)C(=O)NCC(=O)NCC(=O)N[C@@H](CSC1CC(=O)[N+]2(COC2)C1=O)C(N)=O (some centres not stated) | 40 |
| N=C(N)c1ccc(C[C@@H]2NC(=O)[C@@H](Cc3ccc(O)cc3)NC(=O)CSC[C@@H](C(=O)NCC(=O)NCC(=O)N[C@@H](CS)C(=O)NCC(=O)N[C@@H](CS)C(=O)NCC(=O)NCC(=O)N[C@@H](CSCC(=O)CC(=O)N[C@@H](CCCCN)C(=O)N[C@@H](CCCCN)C(=O)NCC(=O)N[C@@H](CS)C(=O)O)C(N)=O)NC(=O)[C@H](CC(=O)O)NC(=O)CNC2=O)cc1 | 50 |
| CC(=O)NCSC[C@H](NC(=O)CNC(=O)[C@H](CSCNC(C)=O)NC(=O)CNC(=O)CNC(=O)CNC(=O)[C@@H]1CSCC(=O)N[C@H](Cc2ccc(O)cc2)C(=O)N[C@@H](CCCN=C(N)N)C(=O)NCC(=O)N[C@@H](CC(=O)O)C(=O)N1)C(N)=O | 1400 |
| N=C(N)c1ccc(C[C@@H]2NC(=O)[C@@H](Cc3ccc(O)cc3)NC(=O)CSC[C@@H](C(=O)N[C@@H](CCCCN)C(=O)NCC(=O)N[C@@H](CS)C(=O)NCC(N)=O)NC(=O)[C@H](CC(=O)O)NC(=O)CNC2=O)cc1 | 80 |
| CC(=O)NCSC[C@H](NC(=O)CNC(=O)CNC(=O)[C@@H]1CSCC(=O)N[C@H](Cc2ccc(O)cc2)C(=O)N[C@@H](CSCCCN)C(=O)NCC(=O)N[C@@H](CC(=O)O)C(=O)N1)C(=O)NCC(=O)N[C@@H](CSCNC(C)=O)C(=O)NCC(=O)NCC(=O)N[C@@H](CSCC(=O)CC(=O)N[C@@H](CCCCN)C(=O)N[C@@H](CCCCN)C(=O)N[C@@H](CCCCN)C(=O)N[C@@H](CCCCN)C(=O)NCC(=O)N[C@@H](CS)C(=O)O)C(N)=O | 30 |
| CC(=O)NCSC[C@H](NC(=O)CNC(=O)[C@H](CSCNC(C)=O)NC(=O)CNC(=O)CNC(=O)CNC(=O)[C@@H]1CSCC(=O)N[C@H](Cc2ccc(O)cc2)C(=O)N[C@@H](CSCCCN)C(=O)NCC(=O)N[C@@H](CC(=O)O)C(=O)N1)C(N)=O ({CH2CO}-[dY]C(Propyl(3-NH2))GDCGGGC(Acm)GC(Acm)-NH2; thioether N-5) | 300 |
| N=C(N)c1ccc(C[C@@H]2NC(=O)[C@@H](Cc3ccc(O)cc3)NC(=O)CSC[C@@H](C(=O)N[C@@H](CCCCN)C(=O)NCC(=O)N[C@@H](CSCC(=O)CC(=O)N[C@@H](CCCCN)C(=O)N[C@@H](CCCCN)C(=O)NCC(=O)N[C@@H](CS)C(=O)O)C(=O)NCC(N)=O)NC(=O)[C@H](CC(=O)O)NC(=O)CNC2=O)cc1 [listing 2 of 2 here] | 30 |
| NCCCC[C@H](NC(=O)CNC(=O)CNC(=O)[C@@H]1CSCC(=O)N[C@H](Cc2ccc(O)cc2)C(=O)N[C@@H](CSCCCN)C(=O)NCC(=O)N[C@@H](CC(=O)O)C(=O)N1)C(=O)NCC(=O)N[C@@H](CCCCN)C(=O)NCC(=O)N[C@@H](CCCCN)C(=O)N[C@@H](CCCCN)C(=O)NCC(=O)N[C@@H](CS)C(=O)NCC(N)=O | 110 |
| NCCCC[C@H](NC(=O)[C@@H]1CSCC(=O)N[C@H](Cc2ccc(O)cc2)C(=O)N[C@@H](CSCCCN)C(=O)NCC(=O)N[C@@H](CC(=O)O)C(=O)N1)C(=O)N[C@@H](CS)C(=O)NCC(N)=O | 140 |
| CC(=O)NCSC[C@H](NC(=O)CNC(=O)CNC(=O)[C@@H]1CSCC(=O)N[C@H](Cc2ccc(O)cc2)C(=O)N[C@@H](CSCCCN)C(=O)NCC(=O)N[C@@H](CC(=O)O)C(=O)N1)C(=O)NCC(=O)N[C@@H](CSCNC(C)=O)C(=O)NCC(=O)NCC(=O)N[C@@H](CSC1CC(=O)[N+]2(CCCCCC2)C1=O)C(N)=O (some centres not stated) | 140 |
| CC(=O)NCSC[C@H](NC(=O)CNC(=O)CNC(=O)[C@H]1CSCC(=O)N[C@@H](Cc2ccc(O)cc2)C(=O)N[C@H](CSCCCN)C(=O)NCC(=O)N[C@H](CC(=O)O)C(=O)N1)C(=O)NCC(=O)N[C@@H](CSCNC(C)=O)C(=O)NCC(=O)NCC(=O)N[C@@H](CSCC(=O)CC(=O)N[C@@H](CCCCN)C(=O)N[C@@H](CCCCN)C(=O)NCC(=O)N[C@@H](CS)C(=O)O)C(=O)NCC(=O)[C@@H]1CSC23SCC(NC(=O)[C@H](CSCC(=O)CC(=O)N[C@@H](CCCCN)C(=O)N[C@@H](CCCCN)C(=O)NCC(=O)N[C@@H](CS)C(=O)O)NC(=O)CNC(=O)CNC(=O)[C@H](CSCNC(C)=O)NC(=O)CNC(=O)[C@H](CSCNC(C)=O)NC(=O)CNC(=O)CNC(=O)[C@H]4CSCC(=O)N[C@@H](Cc5ccc(O)cc5)C(=O)N[C@H](CSCCCN)C(=O)NCC(=O)N[C@H](CC(=O)O)C(=O)N4)C(=O)N2CC(=O)N13 (some centres not stated) | 90 |
| CC(=O)NCSC[C@H](NC(=O)CNC(=O)[C@H](CSCNC(C)=O)NC(=O)CNC(=O)CNC(=O)[C@@H]1CSCC(=O)N[C@H](Cc2ccc(O)cc2)C(=O)N[C@@H](CCCN=C(N)N)C(=O)NCC(=O)N[C@@H](CC(=O)O)C(=O)N1)C(N)=O | 1300 |
| CC(=O)NCSC[C@H](NC(=O)CNC(=O)[C@H](CSCNC(C)=O)NC(=O)CNC(=O)[C@H](CCCCN)NC(=O)[C@@H]1CSCC(=O)N[C@H](Cc2ccc(O)cc2)C(=O)N[C@@H](CSCCCN)C(=O)NCC(=O)N[C@@H](CC(=O)O)C(=O)N1)C(N)=O | 160 |
| N=C(N)c1ccc(C[C@H]2NC(=O)[C@H](Cc3ccc(O)cc3)NC(=O)CSC[C@H](C(=O)N[C@@H](CCCCN)C(=O)NCC(=O)N[C@@H](CSCC(=O)CC(=O)N[C@@H](CCCCN)C(=O)N[C@@H](CCCCN)C(=O)NCC(=O)N[C@@H](CS)C(=O)O)C(=O)NCC(=O)NCC(=O)[C@@H]3CSC45SCC(NC(=O)CNC(=O)[C@H](CSCC(=O)CC(=O)N[C@@H](CCCCN)C(=O)N[C@@H](CCCCN)C(=O)NCC(=O)N[C@@H](CS)C(=O)O)NC(=O)CNC(=O)[C@H](CCCCN)NC(=O)[C@H]6CSCC(=O)N[C@@H](Cc7ccc(O)cc7)C(=O)N[C@H](Cc7ccc(C(=N)N)cc7)C(=O)NCC(=O)N[C@H](CC(=O)O)C(=O)N6)C(=O)N4CC(=O)N35)NC(=O)[C@@H](CC(=O)O)NC(=O)CNC2=O)cc1 (some centres not stated) | 40 |
